Assay results: patent US9617244B2, “Antibacterial quinoline derivatives” (JANSSEN PHARMACEUTICA NV, priority 2012, dated 2017)
Values after ≈ are worked out from the molar mass of the structure shown.

Key:
[1] = test system: Staphylococcus aureus (ATCC29213); test: In-vitro anti-bacterial activity, microtitre plate assay, IC90 determination (non-mycobacterial strains); assay type: cell-based; conditions: 90% inhibitory concentration for bacterial growth, resazurin fluorescence; for IC90: Staphylococcus aureus, ATCC29213, 24 h, read-out: IC90 STA B29213; for IC90 STA B29213: 24 hours
Procedure, shortened: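 Inoculum of about 100 TCID50 (10–60 CFU/well) in Mueller-Hinton broth, serial five-fold compound dilutions, 24 h at 37 °C in air. Growth read by resazurin fluorescence (ex 530/em 590 nm); IC90 in μg/ml as 90% growth inhibition.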

[2] = test system: Mycobacterium smegmatis (ATCC607); test: In-vitro anti-bacterial activity against strain M. Smegmatis ATCC607; assay type: cell-based; conditions: 90% inhibitory concentration for bacterial growth, Alamar Blue fluorescence; for IC90: Mycolicibacterium smegmatis, ATCC607, 48 h, read-out: IC90 MSM 607; for IC90 MSM 607: 48 hours
Procedure, shortened: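 Serial five-fold compound dilutions in BSA-supplemented wells, inoculated with ~250 CFU/well in Mueller-Hinton broth, incubated 48 h at 37 °C, 5% CO2. Growth read by Alamar Blue fluorescence (ex 530/em 590 nm); IC90 in μg/ml.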

IC90 [1] [µg/mL]	melting point [°C]	IC90 [2] [µg/mL]	IC90 MSM 607 [2] [µg/mL]	IC90 STA B29213 [1] [µg/mL]	SMILES
8.48 (≈ 15.8 µM)	162	4.77 (≈ 8.91 µM)	–	–	COc1nc2ccc(F)cc2cc1C(c1ccc(Cl)cc1)C1(O)CCN(C(C)c2ccccc2)C(CO)C1 (stereo not drawn) [Compound 13]
3.48 (≈ 6.31 µM)	183	–	1.90 (≈ 3.44 µM)	–	COc1nc2ccc(Br)cc2cc1C(c1ccc(Cl)cc1)C1(O)CCNC(Cc2ccccc2)C1 (stereo not drawn) [Compound 31]
–	177	–	>3.48	3.48 (≈ 6.31 µM)	COc1nc2ccc(Br)cc2cc1C(c1ccc(Cl)cc1)C1(O)CCNC(Cc2ccccc2)C1 (stereo not drawn) [Compound 33]
–	152	–	2.20 (≈ 3.99 µM)	3.48 (≈ 6.31 µM)	COc1nc2ccc(Br)cc2cc1C(c1cccc(Cl)c1)C1(O)CCNC(Cc2ccccc2)C1 (stereo not drawn) [Compound 34]
3.47 (≈ 6.31 µM)	120	2.19 (≈ 3.98 µM)	–	–	COc1nc2ccc(-c3cccnc3)cc2cc1C(c1cccc(Cl)c1)C1(O)CCNC(Cc2ccccc2)C1 (stereo not drawn) [Compound 36]
–	107	–	0.90 (≈ 1.77 µM)	1.14 (≈ 2.25 µM)	COc1nc2ccc(Cl)cc2cc1C(c1ccc(Cl)cc1)C1(O)CCNC(Cc2ccccc2)C1 (stereo not drawn) [Compound 37]
–	148	–	3.59 (≈ 6.31 µM)	7.16 (≈ 12.6 µM)	COc1nc2ccc(S(C)(=O)=O)cc2cc1C(c1cccc(Cl)c1)C1(O)CCNC(c2ccc(F)cc2C)C1 (stereo not drawn) [Compound 44]
–	160	–	1.14 (≈ 2 µM)	1.80 (≈ 3.16 µM)	COc1nc2ccc(S(C)(=O)=O)cc2cc1C(c1cccc(Cl)c1)C1(O)CCNC(c2ccc(F)cc2C)C1 (stereo not drawn) [Compound 45]
–	145	–	1.80 (≈ 3.16 µM)	3.59 (≈ 6.31 µM)	COc1nc2ccc(S(C)(=O)=O)cc2cc1C(c1cccc(Cl)c1)C1(O)CCNC(c2ccc(F)cc2C)C1 (stereo not drawn) [Compound 46]
–	174	–	5.69 (≈ 10 µM)	14.30 (≈ 25.1 µM)	COc1nc2ccc(S(C)(=O)=O)cc2cc1C(c1cccc(Cl)c1)C1(O)CCNC(c2ccc(F)cc2C)C1 (stereo not drawn) [Compound 47]
–	176	–	0.62 (≈ 1.26 µM)	1.23 (≈ 2.51 µM)	COc1nc2ccc(F)cc2cc1C(c1ccc(Cl)cc1)C1(O)CCNC(Cc2ccccc2)C1 (stereo not drawn) [Compound 52]
–	102	–	2.46 (≈ 5.01 µM)	1.55 (≈ 3.16 µM)	COc1nc2ccc(F)cc2cc1C(c1ccc(Cl)cc1)C1(O)CCNC(Cc2ccccc2)C1 (stereo not drawn) [Compound 53]
–	140	–	>13.94	>13.94	CS(=O)(=O)c1ccc2[nH]c(=O)c(C(c3ccc(Cl)cc3)C3(O)CCNC(Cc4ccc(F)cc4)C3)cc2c1 (stereo not drawn) [Compound 56]
2.77 (≈ 5.01 µM)	161	–	1.39 (≈ 2.51 µM)	–	COc1nc2ccc(Br)cc2cc1C(c1ccc(Cl)cc1)C1(O)CCNC(Cc2ccccn2)C1 (stereo not drawn) [Compound 60]
–	141	–	0.85 (≈ 1.59 µM)	1.69 (≈ 3.16 µM)	COc1nc2ccc(Br)cc2cc1C(c1ccccc1)C1(O)CCNC(c2ccc(F)cc2C)C1 (stereo not drawn) [Compound 61]
–	157	–	1.59 (≈ 3.16 µM)	3.17 (≈ 6.31 µM)	CCCN(C)CC1CC(O)(C(c2ccc(Cl)cc2)c2cc3cc(Cl)ccc3nc2OC)CCN1 (stereo not drawn) [Compound 63]
> 14.3	240	> 14.3	–	–	COc1nc2ccc(S(C)(=O)=O)cc2cc1C(c1ccc(Cl)cc1)C1(O)CCNCC1Cc1cccc[n+]1[O-] (stereo not drawn) [Compound 65]
–	184	–	>14.27	>14.27	COc1nc2ccc(S(C)(=O)=O)cc2cc1C(c1ccc(Cl)cc1)C1(O)CCNCC1Cc1cccc[n+]1[O-] (stereo not drawn) [Compound 66]
–	230	–	1.60 (≈ 2.83 µM)	2.84 (≈ 5.02 µM)	CCn1c(=O)c(C(c2ccc(Cl)cc2)C2(O)CCNC(Cc3ccccc3)C2)cc2cc(Br)ccc21 (stereo not drawn) [Compound 82]
